In patent US10513694B2, “Thienopyrrole compounds and uses thereof” (PROMEGA CORPORATION, priority 2015, dated 2019):
Where two headings read alike, the source gives them in different places.

Target: NANOLUC® enzyme (Oplophorus gracilirostris, UniProt Q9GV45, A31E/A60N/A81I/F95D/I117V/K70R/L54V/L99Q/M102K/N193R/P142E/Q151K/Q38R/Q45L/V71I/Y165I)
Experiment: Inhibitor IC50 determination (NANOLUC enzyme, furimazine)
Assay type: biochemical
Settings: 0.4 ng/ml NANOLUC enzyme, final furimazine 10 uM (at Km)
Procedure: The following example provides the IC50 values for the compounds disclosed herein. See Table 5 NANOLUC® enzyme was diluted to 0.4 ng/ml in CO2 independent media+10% FBS to make the detection reagent. A 3× dilution series of each inhibitor was then made in the detection reagent. A “no inhibitor” control was also made for each sample. 50 ul of each inhibitor dilution was mixed with 50 ul of NanoGlo buffer containing 20 uM furimazine. (Final furimazine concentration is 10 uM which is at Km.), and luminescence measured. Each sample was normalized to the “no inhibitor” control. The […] values were then determined using GraphPad Prism (log [inhibitor] vs. normalized response).

NANOLUC® enzyme, sequence (Q9GV45 28-196 with tags or gaps with the stated changes limits assumed): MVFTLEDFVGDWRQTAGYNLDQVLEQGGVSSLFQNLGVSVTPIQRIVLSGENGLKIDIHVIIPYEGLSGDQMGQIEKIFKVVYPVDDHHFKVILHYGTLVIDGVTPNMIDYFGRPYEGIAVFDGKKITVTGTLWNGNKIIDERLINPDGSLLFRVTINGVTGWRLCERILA

Molecule | IC50 (IC50 (uM)) [µM] | IC50 (read-out: IC50) [µM]
CCCCCCN(C(=O)Cn1c(C(=O)N[C@H]2CC[C@H](C(=O)OC)CC2)cc2sccc21)c1cccc(C)c1 [JRW-0149, methyl-trans-4-(4-(2-(hexyl(m-tolyl)amino)-2-oxoethyl)-4H-thieno[3,2-b]pyrrole-5-carboxamido)cyclohexane-1-carboxylate] | 2.5 | 
CCN(C(=O)Cn1c(C(=O)NC[C@H]2CC[C@H](C(=O)NCCCCCC(=O)O)CC2)cc2sccc21)c1cccc(C)c1 [JRW-0268, 6-(trans-4-((4-(2-(ethyl(m-tolyl)amino)-2-oxoethyl)-4H-thieno[3,2-b]pyrrole-5-carboxamido)methyl)cyclohexane-1-carboxamido)hexanoic acid] | 4.3 | 
CCN(C(=O)Cn1c(C(=O)N2CCCC2)cc2sccc21)c1cccc(C)c1 [JRW-0008, N-ethyl-2-(5-(pyrrolidine-1-carbonyl)-4H-thieno[3,2-b]pyrrol-4-yl)-N-(m-tolyl)acetamide] | 1.1 | 
CCN(C(=O)Cn1c(C(=O)N[C@H]2CC[C@H](C(=O)NCCCCCCO)CC2)cc2sccc21)c1cccc(C)c1 [JRW-0242, 4-(2-(ethyl(m-tolyl)amino)-2-oxoethyl)-N-(trans-4-((6-hydroxyhexyl)carbamoyl)cyclohexyl)-4H-thieno[3,2-b]pyrrole-5-carboxamide] | 0.035 | 
CCN(C(=O)Cn1c(C(=O)N[C@H]2CC[C@H](C(=O)OC)CC2)cc2sccc21)c1cccc(C(N)=O)c1 [JRW-0322, Methyl trans-4-(4-(2-((3-carbamoylphenyl)(ethyl)amino)-2-oxoethyl)-4H-thieno[3,2-b]pyrrole-5-carboxamido)cyclohexane-1-carboxylate] | 0.2 | 
CCN(C(=O)Cn1c(C(=O)N[C@H]2CC[C@H](C(N)=O)CC2)cc2sccc21)c1cccc(C)c1 [JRW-0052, N-(trans-4-carbamoylcyclohexyl)-4-(2-(ethyl(m-tolyl)amino)-2-oxoethyl)-4H-thieno[3,2-b]pyrrole-5-carboxamide] | 1.3 | 
CCN(C(=O)Cn1c(C(=O)NC2CCN(C(=O)CCCCC(=O)O)CC2)cc2sccc21)c1cccc(C)c1 [JRW-0208, 6-(4-(4-(2-(ethyl(m-tolyl)amino)-2-oxoethyl)-4H-thieno[3,2-b]pyrrole-5-carboxamido)piperidin-1-yl)-6-oxohexanoic acid] | 0.82 | 
CCN(C(=O)Cn1c(C(=O)N[C@H]2CC[C@H](C(=O)NCCO)CC2)cc2sccc21)c1cccc(C)c1 [JRW-0043, 4-(2-(ethyl(m-tolyl)amino)-2-oxoethyl)-N-(trans-4-((2-hydroxyethyl)carbamoyl)cyclohexyl)-4H-thieno[3,2-b]pyrrole-5-carboxamide] | 0.84 | 
CCN(C(=O)Cn1c(C(=O)N[C@H]2CC[C@@H](C(=O)OC)CC2)cc2sccc21)c1cccc(C)c1 [JRW-0041, methyl-cis-4-(4-(2-(ethyl(m-tolyl)amino)-2-oxoethyl)-4H-thieno[3,2-b]pyrrole-5-carboxamido)cyclohexane-1-carboxylate] | 0.2 | 
COCCOCCN(C(=O)Cn1c(C(=O)NC2CCCCC2)cc2sccc21)c1cccc(C)c1 [JRW-0109, N-cyclohexyl-4-(2-((2-(2-methoxyethoxy)ethyl)(m-tolyl)amino)-2-oxoethyl)-4H-thieno[3,2-b]pyrrole-5-carboxamide] | 10.1 | 
COC(=O)[C@H]1CC[C@H](NC(=O)c2cc3sccc3n2CC(=O)N2CCCc3cc(C)ccc32)CC1 [JRW-0331, Methyl trans-4-(4-(2-(6-methyl-3,4-dihydroquinolin-1(2H)-yl)-2-oxoethyl)-4H-thieno[3,2-b]pyrrole-5-carboxamido)cyclohexane-1-carboxylate] | 16.9 | 
CCc1cccc(N(CC)C(=O)Cn2c(C(=O)N[C@H]3CC[C@H](C(=O)NCCCCCCS(=O)(=O)O)CC3)cc3sccc32)c1 [JRW-0432, Sodium 6-(trans-4-(4-(2-(ethyl(3-ethylphenyl)amino)-2-oxoethyl)-4H-thieno[3,2-b]pyrrole-5-carboxamido)cyclohexane-1-carboxamido)hexane-1-sulfonate] | 0.0031 | 
CCN(C(=O)Cn1c(C(=O)Nc2cccc(C(=O)OC)c2)cc2sccc21)c1cccc(C)c1 [JRW-0151, methyl 3-(4-(2-(ethyl(m-tolyl)amino)-2-oxoethyl)-4H-thieno[3,2-b]pyrrole-5-carboxamido)benzoate] | 7 | 
CCN(C(=O)Cn1cccc1C(=O)N[C@H]1CC[C@H](C(=O)OC)CC1)c1cccc(C)c1 [JRW-0456, Methyl trans-4-(1-(2-(ethyl(m-tolyl)amino)-2-oxoethyl)-1H-pyrrole-2-carboxamido)cyclohexane-1-carboxylate] | 7.4 | 
CCN(C(=O)Cn1c(C(=O)N[C@H]2CC[C@H](C(=O)OC)CC2)cc2ccc(OC)cc21)c1cccc(C)c1 [JRW-0359, Methyl trans-4-(1-(2-(ethyl(m-tolyl)amino)-2-oxoethyl)-6-methoxy-1H-indole-2-carboxamido)cyclohexane-1-carboxylate] | 3 | 
CCN(C(=O)Cn1c(C(=O)N[C@H]2CC[C@H](C(=O)OC)CC2)cc2ccccc21)c1cccc(C)c1 [JRW-0355, Methyl trans-4-(1-(2-(ethyl(m-tolyl)amino)-2-oxoethyl)-1H-indole-2-carboxamido)cyclohexane-1-carboxylate] | 0.052 | 
CCN(C(=O)Cn1c(C(=O)N[C@H]2CC[C@H](C(=O)OC)CC2)cc2sccc21)c1cccc(C(C)C)c1 [JRW-0460, Methyl trans-4-(4-(2-(ethyl(3-isopropylphenyl)amino)-2-oxoethyl)-4H-thieno[3,2-b]pyrrole-5-carboxamido)cyclohexane-1-carboxylate] | 0.12 | 
N-(trans-4-((6-(3′,6′-dihydroxy-3-oxo-3H-spiro[isobenzofuran-1,9′-xanthene]-5(6)-carboxamido)hexyl)carbamoyl)cyclohexyl)-4-(2-(ethyl(m-tolyl)amino)-2-oxoethyl)-4H-thieno[3,2-b]pyrrole-5-carboxamide [JRW-0200] |  | 0.078
CCN(C(=O)Cn1c(C(=O)N[C@H]2CC[C@H](C(=O)N[C@H]3CC[C@H](C(=O)OC)CC3)CC2)cc2sccc21)c1cccc(C)c1 [JRW-0243, methyl-trans-4-(trans-4-(4-(2-(ethyl(m-tolyl)amino)-2-oxoethyl)-4H-thieno[3,2-b]pyrrole-5-carboxamido)cyclohexane-1-carboxamido)cyclohexane-1-carboxylate] | 0.21 | 
CCN(C(=O)Cn1c(C(=O)N2CCCCC2)cc2sccc21)c1cccc(C)c1 [JRW-0009, N-ethyl-2-(5-(piperidine-1-carbonyl)-4H-thieno[3,2-b]pyrrol-4-yl)-N-(m-tolyl)acetamide] | 2.7 | 
CCOC(=O)Cc1ccc(NC(=O)c2cc3sccc3n2CC(=O)N(CC)c2cccc(C)c2)cc1 [JRW-0152, ethyl 2-(4-(4-(2-(ethyl(m-tolyl)amino)-2-oxoethyl)-4H-thieno[3,2-b]pyrrole-5-carboxamido)phenyl)acetate] | 4.3 | 
